Assay [1] relates to HMEC-1 cells. Kind of assay: Scratch assay of endothelial cell motility. In kind it is cell-based, human. Conditions: 24 hours. As to the method:
To determine whether IP-10dp inhibits endothelial cell motility, a conventional “scratch assay” was performed. ELR-negative chemokines, such as IP-10, inhibit fibroblast and endothelial cell motility. IP-10 has been shown in prior literature to inhibit HMEC-1 cells' motility in the presence of angiogenic growth factors VEGF165 and bFGF. Thus, a scratch assay comparison was conducted to examine whether, and to what extent, IP-10dp could mimic the inhibitory effects of the full length IP-10. HMEC-1 cells were plated at 2.5×10^5 cells/well in 12 well culture plates and grown to 80 to 85% confluence and quiesced in 0.5% dialyzed fetal bovine serum for 24 hours at 37° C. in 5% CO2. The cells were washed one time with PBS and then incubated in 0.5% dialyzed MDCB 131 media for 24 hours at 37° C. in 5% CO2. The cultures were scraped with a rubber policeman making a 1 mm wide denuded area. […] Images were taken at time zero and 24 hours, and the relative distance traveled by the cells into the a cellular area was determined using MetaMorph. The HMEC-1 culture images were analyzed for the ability of the cells to migrate into a denuded area over a 24 hour period in the presence or absence of VEGF165.

Assay [2] has as its system HMEC-1 cells. Kind of assay: Tube formation after pre-treatment with CXCR3-neutralizing antibody. In kind it is cell-based, human. As to the method: To determine if the IP-10dp peptide is acting through the same signaling pathways as IP-10, an experiment was conducted using a CXCR3-neutralizing antibody (also referred to herein as CXCR3 Ab) to assess that antibody's impact upon IP-10dp's ability to block tube formation. HMEC-1 cells were grown, detached and re-suspended in serum-free media and all were pretreated with CXCR3 Ab (0.5 μg/ml) 30 minutes prior to the addition of VEGF (75 ng/ml), IP-10 (300 ng/ml), IP-10dp (10 μM) and/or Immunoglobulin G (or “IgG,” as control). The thus-treated cells (1×10^4 cells/well) were added to 24-well culture plates coated with growth factor reduced Matrigel and incubated for 24 hours, and endothelial tubes were allowed to form as described above. Images were obtained as above. […]
Quantification of the endothelial tubes formed was performed as above, using MetaMorph, with the data being shown in the graphs of FIG. 6B are of N=6 and normalized to no treatment (average±SEM), and with *P<0.05.

Assay [3] relates to VEGF-induced new vessel formation. Kind of assay: In vivo Matrigel plug assay, vessel development. Also noted: species or system C57Bl/6 mice. Conditions: mice, day 10. As to the method:
To determine whether IP-10dp is able to inhibit vessel growth, an in vivo Matrigel assay was used to establish that IP-10dp is able to inhibit angiogenesis. Vessel development and regression in vivo was determined generally according to the method previously described by Bodnar et al. (see Bodnar et al., 2006, supra). In brief, for vessel development GFR Matrigel supplemented with VEGF165 in the absence or presence of IP-10 or IP-10dp was injected into the groin area of the mice. Ten days post inoculation; the Matrigel plug was removed and stained with Masson Trichrome to visualize endothelial infiltration.
Specifically, Matrigel with VEGF was injected into the groin area near the dorsal midline of 12-month-old C57Bl/6 female mice. In addition to Matrigel plus VEGF, the mice were injected with saline (control), 10 μg of IP-10 or 100 μg of IP-10dp. Two injections were made in each mouse in separate dorsal areas, one control injection and the other with the designated experimental treatment. On day 10, the Matrigel plugs were removed and either paraffin embedded or flash frozen. They were prepared and examined histologically for new vessel development using Masson's trichrome staining. […] This particular result is taken as being indicative that IP-10dp has the ability to inhibit VEGF-induced new vessel formation.

The subject of assay [4] is VEGF-induced newly formed vessels. Briefly: In vivo Matrigel plug assay, regression of newly formed vessels. Also noted: species or system C57BL/6J mice. The settings on record: mice; injected into plug at days 10 and 12, examined day 17; IP-10 10 μg, IP-10dp 100 μg. As to the method:
Further, to verify that IP-10dp is able to cause regression of newly formed vessels in vivo, parallel experiments were conducted on similar mice whereby GFR Matrigel supplemented with VEGF (200 ng/ml) was first injected into both the left and right side groins of mice (establishing a control location and a test location). After 10 days, the left side Matrigel plug was removed (control, n=6) and stained as above for histological examination, with the left side samples being used to establish the extent of new vessel invasion at 10 days. The remaining right side Matrigel plug in the mice was injected with either IP-10 (10 μg) or IP-10dp (100 μg) at days 10 and 12. Day 17, the right side Matrigel plugs were removed and stained for examination as above. FIG. 8D through FIG. 8G are color photographs of tissue samples, showing both 10× and 40× magnifications, taken from laboratory C57BL/6J mice. […]

In the case of “PESKAIKNLLKAVSKEMSKRSP (IP-10dp; listed as Homo sapiens) [synthetic fragment of IP-10 comprising residues 78-98, the C-terminal α-helical domain]”, the “inhibition of endothelial cell migration, excess over IP-10” value in the assay on HMEC-1 cells [1] (IP-10dp 10 μM vs IP-10 200 ng/ml) worked out at 10%. The “inhibition of HMEC-1 cell motility” value in the assay with HMEC-1 cells [1] (IP-10dp 10 μM, with and without VEGF (100 ng/ml)) was “inhibited motility”. Moreover, the “tube formation inhibition after CXCR3 Ab pre-treatment” value in the assay with HMEC-1 cells [2] (CXCR3 Ab 0.5 μg/ml 30 minutes before, IP-10 300 ng/ml, IP-10dp 10 μM) is recorded as “significantly blocked”. For the same sequence, the “effect on VEGF-driven tube formation when CXCR3 receptor neutralized” value in the assay with HMEC-1 cells [2] (CXCR3 Ab 0.5 μg/ml, VEGF 75 ng/ml) is on record as “unable to override the angiogenic signals from VEGF”. The “inhibition of VEGF-induced angiogenesis in Matrigel plug” value in assay [3] (10 μg IP-10 or 100 μg IP-10dp with Matrigel plus VEGF, Masson's trichrome) is reported as “inhibited this angiogenesis”. Further, in assay [3] (100 μg IP-10dp vs 10 μg IP-10), the “inhibition of VEGF-induced new vessel formation compared with IP-10” value was “more effective than IP-10”. In addition, the “regression of vessels compared to saline control” value in assay [4] is on record as “significant regression of vessels”.

(Values after patent publication US8734775B2, “Chemokine derived peptides that bind with chemokine receptor CXCR3 and uses for chronic wound and angiogenesis inhibition treatments” (University of Pittsburgh, priority 2011, dated 2014).)
